From ChEMBL document CHEMBL3580626, “Scaffold hopping of potential anti-tumor agents by WEGA: a shape-based approach” (Medchemcomm, 2014)

Columns and labels:
HepG2 = experiment: Cytotoxicity against human HepG2 cells assessed as reduction in cell viability after 48 hrs by CCK8 assay; assay type: functional, cell-based; conditions: HepG2, 48 h
[1] = Cytotoxicity against human LO2 cells assessed as reduction in cell viability after 48 hrs by CCK8 assay; assay type: cell-based; conditions: L02, 48 h

| SMILES | IC50 (HepG2; read-out: pIC50 (converted)) [µM] | IC50 [1] [µM] | IC50 (HepG2; read-out: IC50) [µM] |
| --- | --- | --- | --- |
| CC(=O)N1c2ccccc2CCc2ccc(N)cc21 | > 158 | – | – |
| COC1=Cc2ccccc2N(C(N)=O)c2ccccc21 | > 158 | – | – |
| CC(=O)N1c2ccccc2CCc2ccc(Cl)cc21 | > 158 | – | – |
| COC1=Cc2ccccc2Nc2ccccc21 | 70.8 | – | – |
| CC(CN1c2ccccc2S(=O)(=O)c2ccccc21)N(C)C (stereo unspecified) | > 158 | – | – |
| CCN1c2ccccc2CCc2ccc(Cl)cc21 | > 158 | – | – |
| c1ccc2c(c1)[nH]c1cccc(OCC3CO3)c12 (stereo unspecified) | 17 | > 160 | – |
| O=C(Cl)N1c2ccccc2C=Cc2ccccc21 | 33.9 | – | – |
| Oc1cccc2[nH]c3ccccc3c12 | 123 | – | – |
| c1ccc2c(c1)CCc1ccccc1N2 | > 158 | – | – |
| NC(=O)N1c2ccccc2C=Cc2ccccc21 [CARBAMAZEPINE] | > 158 | – | – |
| CC(C(=O)O)c1ccc2c(c1)[nH]c1ccc(Cl)cc12 (stereo unspecified) [CARPROFEN] | 166 | – | – |
| COc1ccccc1OCCNCC(O)COc1cccc2[nH]c3ccccc3c12 (stereo unspecified) [CARVEDILOL] | 17.4 | 85 | – |
| CN1CCN(C2=Nc3cc(Cl)ccc3Nc3ccccc32)CC1 [CLOZAPINE] | 47.9 | – | – |
| OCCN1CCN(CCCN2c3ccccc3Sc3ccc(C(F)(F)F)cc32)CC1 [FLUPHENAZINE] | 4.37 | > 160 | 4.4 |
| C1=Cc2ccccc2Nc2ccccc21 [IMINOSTILBENE] | > 158 | – | – |
| CC(CN(C)C)CN1c2ccccc2Sc2ccccc21 (stereo unspecified) [METHYLPROMAZINE] | 61.7 | – | – |
| NC(=O)N1c2ccccc2CC(=O)c2ccccc21 [OXCARBAZEPINE] | 19.5 | > 160 | – |
| OCCN1CCN(CCCN2c3ccccc3Sc3ccc(Cl)cc32)CC1 [PERPHENAZINE] | 16.2 | > 160 | – |
| c1ccc2c(c1)Nc1ccccc1O2 [PHENOXAZINE] | 204 | – | – |
